*1 amine or outer side, *2 acyl side, *3 side chain or, on linkers, in order; H or OH if unused. Where a SMILES comes first, the peptide text is derived from it. Side-chain parts run from the residue outwards. The star is where a group is joined. C20 diacid = O=C(O)CCCCCCCCCCCCCCCCCCC(=O)*; C18 diacid = O=C(O)CCCCCCCCCCCCCCCCC(=O)*; γGlu = O=C(O)[C@H](CCC(=O)[*:2])N[*:1]; Trx = NC[C@H]1CC[C@H](C(=O)O)CC1; AEEA = NCCOCCOCC(=O)O
Key:
Y2 receptor = target: T1, Y2 receptor (Homo sapiens, UniProt P49146); assay: Y2 receptor ACTOne based FLIPR assay (cAMP biosensor); format: cell-based; conditions: Table 2, PP analogues; ACTOne HEK-293 cells; read-out: Y2 cAMP EC50
T1 construct: host or cells: ACTOne HEK-293 cells
T1 sequence (P49146 1-381): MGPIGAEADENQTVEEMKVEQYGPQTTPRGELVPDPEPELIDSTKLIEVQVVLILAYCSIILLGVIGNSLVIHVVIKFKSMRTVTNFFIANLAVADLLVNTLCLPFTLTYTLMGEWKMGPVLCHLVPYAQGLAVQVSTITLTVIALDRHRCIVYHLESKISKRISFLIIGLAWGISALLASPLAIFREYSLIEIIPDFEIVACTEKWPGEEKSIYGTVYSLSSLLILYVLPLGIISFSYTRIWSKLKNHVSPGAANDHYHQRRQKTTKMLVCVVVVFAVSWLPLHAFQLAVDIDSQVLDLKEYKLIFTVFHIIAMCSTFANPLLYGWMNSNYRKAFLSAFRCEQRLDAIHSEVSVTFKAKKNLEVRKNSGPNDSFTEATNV
Description: ACTOne™ is an easily scaleable cAMP biosensor HTS platform for measurement of Gs and Gi coupled 7™ receptor signalling from BD Biosciences (San Jose, Calif.). The cells express a biosensor developed around a modified rat olfactory cyclic nucleotide gated (CNG) calcium channel—a fairly non-discriminatory ion channel that responds to cAMP and cGMP. The CNG has been engineered to be cAMP selective and thus function as a cAMP responsive biosensor that signals through calcium or membrane potential responsive dyes. Y2 or Y4 receptor expressing ACTOne HEK-293 cells are obtained from BD Biosciences. The cells are loaded with a calcium responsive dye that only distributes in the cytoplasm. Probenecid, an inhibitor of the organic anion transporter is added to prevent the dye from leaving the cell. A phosphodiesterase inhibitor is added to prevent formatted cAMP from being degraded. Isoproterenol (an β1/β2 agonist) is added to activate the adenylate cyclase. When an Y2 or Y4 receptor agonist is added, the adenylate cyclase is inactivated. The decreased calcium concentration in the cytoplasm is then detected as an increase in fluorescence. Together with the test substance, Isoproterenol at a concentration matching EC80, is added to all wells. • The cells are plated out in Greiner 384-well plates. […] The plates are covered with tinfoil to avoid light (the dye can be excited by the daylight, which results in higher baseline and variation). • The FLIPR (FLIPRtetra from Molecular Devices, CA, USA) adds 1 μl sample and 1 μl isoproterenol (0.05 μM final concentration) at the same time. • The fluorescence signal from the wells is measured 330 seconds after sample addition on the FLIPR.

in vivo = conditions: Göttingen, minipig, iv
Method in brief: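 Catheterised mini-pigs received compound i.v. at 10 nmol/kg in pH 4.0 phosphate/NaCl/tween vehicle, or alternatively i.v. or s.c. at 1–30 nmol/kg in pH 8.0 K2HPO4/tween. Stabilised plasma was sampled up to 13 days and assayed by LC-MS (LLOQ 2 nM). Half-life came from non-compartmental analysis of individual animal profiles.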

Row | SMILES | EC50 (Y2 receptor) [nM] | half-life (in vivo; 13.5 nmol/kg) [h] | half-life (in vivo; 4 nmol/kg) [h]
1 | CC[C@H](C)[C@H](NC(=O)[C@H](Cc1ccc(O)cc1)NC(=O)[C@H](CCCNC(=N)N)NC(=O)[C@H](CCCNC(=N)N)NC(=O)[C@H](CC(C)C)NC(=O)[C@H](CC(=O)O)NC(=O)[C@H](C)NC(=O)[C@H](C)NC(=O)[C@H](Cc1ccc(O)cc1)NC(=O)[C@H](CCC(N)=O)NC(=O)[C@H](CCCCNC(=O)COCCOCCNC(=O)COCCOCCNC(=O)CC[C@H](NC(=O)[C@H]1CC[C@H](CNC(=O)CCCCCCCCCCCCCCCCCCC(=O)O)CC1)C(=O)O)NC(=O)[C@H](CC(C)C)NC(=O)[C@H](CCC(N)=O)NC(=O)[C@H](CCC(=O)O)NC(=O)[C@@H]1CCCN1C(=O)[C@@H](NC(=O)[C@H](C)NC(=O)[C@H](CC(N)=O)NC(=O)[C@H](CC(=O)O)NC(=O)CNC(=O)[C@@H]1CCCN1C(=O)[C@H](Cc1ccc(O)cc1)NC(=O)[C@@H](NC(=O)[C@@H]1CCCN1C(=O)[C@H](CCC(=O)O)NC(=O)[C@H](CC(C)C)NC(=O)[C@@H]1CCCN1)C(C)C)[C@@H](C)O)C(=O)N[C@@H](CC(N)=O)C(=O)N[C@@H](CC(C)C)C(=O)N[C@@H](CC(C)C)C(=O)N[C@H](C(=O)N[C@@H](CCCNC(=N)N)C(=O)N1CCC[C@H]1C(=O)N[C@@H](CCCNC(=N)N)C(=O)N[C@@H](Cc1ccc(O)cc1)C(N)=O)[C@@H](C)O [SEQ ID NO: 43, N-epsilon18-[2-(2-{2-[2-(2-{2-[(S)-4-Carboxy-4-({trans-4-[(19-carboxynonadecanoylamino)methyl]cyclohexanecarbonyl}amino)butyrylamino]-ethoxy}ethoxy)acetylamino]ethoxy}ethoxy)acetyl][Leu17,Lys18,Leu30]hPP2-36] (H-PLEPVYPGDNATPEQLK([AEEA-AEEA-γGlu-Trx-C20 diacid])QYAADLRRYINLLTRPRY-NH2; N-terminus and C-terminus assumed) | > 1000 | 55 | 
2 | CC[C@H](C)[C@H](NC(=O)[C@H](Cc1ccc(O)cc1)NC(=O)[C@H](CCCCNC(=O)COCCOCCNC(=O)COCCOCCNC(=O)CC[C@H](NC(=O)CCCCCCCCCCCCCCCCC(=O)O)C(=O)O)NC(=O)[C@H](CCCNC(=N)N)NC(=O)[C@H](CC(C)C)NC(=O)[C@H](CC(=O)O)NC(=O)[C@H](C)NC(=O)[C@H](C)NC(=O)[C@H](Cc1ccc(O)cc1)NC(=O)[C@H](CCC(N)=O)NC(=O)[C@H](C)NC(=O)[C@H](CC(C)C)NC(=O)[C@H](CCC(N)=O)NC(=O)[C@H](CCC(=O)O)NC(=O)[C@@H]1CCCN1C(=O)[C@@H](NC(=O)[C@H](C)NC(=O)[C@H](CC(N)=O)NC(=O)[C@H](CC(=O)O)NC(=O)CNC(=O)[C@@H]1CCCN1C(=O)[C@H](Cc1ccc(O)cc1)NC(=O)[C@@H](NC(=O)[C@@H]1CCCN1C(=O)[C@H](CCC(=O)O)NC(=O)[C@H](CC(C)C)NC(=O)[C@@H]1CCCN1)C(C)C)[C@@H](C)O)C(=O)N[C@@H](CC(N)=O)C(=O)N[C@@H](CC(C)C)C(=O)N[C@@H](CC(C)C)C(=O)N[C@H](C(=O)N[C@@H](CCCNC(=N)N)C(=O)N1CCC[C@H]1C(=O)N[C@@H](CCCNC(=N)N)C(=O)N[C@@H](Cc1ccc(O)cc1)C(N)=O)[C@@H](C)O [SEQ ID NO: 46, N-epsilon26-[2-(2-{2-[2-(2-{2-[(S)-4-Carboxy-4-(17-carboxyheptadecanoylamino)butyrylamino]ethoxy}ethoxy)acetylamino]-ethoxy}ethoxy)acetyl][Leu17,Lys26,Leu30]hPP2-36] (H-PLEPVYPGDNATPEQLAQYAADLRK([AEEA-AEEA-γGlu-C18 diacid])YINLLTRPRY-NH2; N-terminus and C-terminus assumed) | > 1000 |  | 62

Source: US20110275559A1, “Long-Acting Y2 and/or Y4 Receptor Agonists” (Novo Nordisk A/S, priority 2008, published 2011)
